Assay results: PubChem BioAssay (NCI)
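Cultured in 96-well plates, cells were exposed to test compound for 48 hours across five concentrations. At the TGI there is no net growth.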 Where a SMILES comes first, the peptide text is derived from it. The star is where a group is joined. Boc = CC(C)(C)OC(=O)*

Legend:
Assay in all cases: DTP human tumour cell line panel, 48 h
SNB-19 CNS = system: SNB-19 CNS
RPMI-8226 leukemia = system: RPMI-8226 leukemia
OVCAR-8 ovarian = system: OVCAR-8 ovarian
NCI-H226 lung = system: NCI-H226 lung
BT-549 breast = system: BT-549 breast
ACHN renal = system: ACHN renal
UO-31 renal = system: UO-31 renal
NCI-H460 lung = system: NCI-H460 lung
MOLT-4 leukemia = system: MOLT-4 leukemia
HOP-92 NSCLC = system: HOP-92 NSCLC
SR leukemia = system: SR leukemia
HS 578T breast = system: HS 578T breast
SK-OV-3 ovarian = system: SK-OV-3 ovarian
MDA-MB-231 breast = system: MDA-MB-231 breast
A498 renal = system: A498 renal
NCI-H522 lung = system: NCI-H522 lung
HT29 colon = system: HT29 colon
RXF 393 renal = system: RXF 393 renal
OVCAR-5 ovarian = system: OVCAR-5 ovarian
MALME-3M melanoma = system: MALME-3M melanoma
OVCAR-4 ovarian = system: OVCAR-4 ovarian
U251 CNS = system: U251 CNS
SW-620 colon = system: SW-620 colon
CCRF-CEM leukemia = system: CCRF-CEM leukemia
EKVX NSCLC = system: EKVX NSCLC
K-562 leukemia = system: K-562 leukemia
MDA-N = system: MDA-N
SF-268 CNS = system: SF-268 CNS
UACC-62 melanoma = system: UACC-62 melanoma
NCI/ADR-RES ovarian = system: NCI/ADR-RES ovarian
KM12 colon = system: KM12 colon
T-47D breast = system: T-47D breast
TK-10 renal = system: TK-10 renal
HCT-15 colon = system: HCT-15 colon
COLO 205 colon = system: COLO 205 colon
M14 melanoma = system: M14 melanoma
HCC-2998 colon = system: HCC-2998 colon
HL-60(TB) leukemia = system: HL-60(TB) leukemia
LOX IMVI melanoma = system: LOX IMVI melanoma
HCT-116 colon = system: HCT-116 colon
A549 NSCLC = system: A549 NSCLC
SK-MEL-28 melanoma = system: SK-MEL-28 melanoma
UACC-257 melanoma = system: UACC-257 melanoma
PC-3 prostate = system: PC-3 prostate
SK-MEL-5 melanoma = system: SK-MEL-5 melanoma
SNB-75 CNS = system: SNB-75 CNS
SN12C renal = system: SN12C renal
CAKI-1 renal = system: CAKI-1 renal
SK-MEL-2 melanoma = system: SK-MEL-2 melanoma
NCI-H23 lung = system: NCI-H23 lung
IGROV1 ovarian = system: IGROV1 ovarian
786-0 renal = system: 786-0 renal
DU-145 prostate = system: DU-145 prostate
HOP-62 NSCLC = system: HOP-62 NSCLC
SF-295 CNS = system: SF-295 CNS
MDA-MB-435 = system: MDA-MB-435
MCF7 breast = system: MCF7 breast
OVCAR-3 ovarian = system: OVCAR-3 ovarian
SF-539 CNS = system: SF-539 CNS

## Cc1nnc(N)nc1/C=C\c1ccc(N(C)C)cc1
SNB-19 CNS
  TGI: > 100 µM
RPMI-8226 leukemia
  TGI: > 100 µM
OVCAR-8 ovarian
  TGI: > 100 µM
NCI-H226 lung
  TGI: > 100 µM
BT-549 breast
  TGI: > 100 µM
ACHN renal
  TGI: > 100 µM
UO-31 renal
  TGI: > 100 µM
NCI-H460 lung
  TGI: > 100 µM
MOLT-4 leukemia
  TGI: > 100 µM
HOP-92 NSCLC
  TGI: > 100 µM
SR leukemia
  TGI: > 100 µM
HS 578T breast
  TGI: > 100 µM
SK-OV-3 ovarian
  TGI: > 100 µM
MDA-MB-231 breast
  TGI: > 100 µM
A498 renal
  TGI: > 100 µM
NCI-H522 lung
  TGI: 17.1 µM
HT29 colon
  TGI: > 100 µM
RXF 393 renal
  TGI: > 100 µM
OVCAR-5 ovarian
  TGI: > 100 µM
MALME-3M melanoma
  TGI: > 100 µM
OVCAR-4 ovarian
  TGI: > 100 µM
U251 CNS
  TGI: > 100 µM
SW-620 colon
  TGI: > 100 µM
CCRF-CEM leukemia
  TGI: > 100 µM
EKVX NSCLC
  TGI: > 100 µM
K-562 leukemia
  TGI: > 100 µM
MDA-N
  TGI: > 100 µM
SF-268 CNS
  TGI: > 100 µM
UACC-62 melanoma
  TGI: > 66.9 µM
NCI/ADR-RES ovarian
  TGI: > 100 µM
KM12 colon
  TGI: > 100 µM
T-47D breast
  TGI: > 100 µM
TK-10 renal
  TGI: > 100 µM
HCT-15 colon
  TGI: > 59.2 µM
COLO 205 colon
  TGI: > 100 µM
M14 melanoma
  TGI: > 100 µM
HCC-2998 colon
  TGI: 23.8 µM
HL-60(TB) leukemia
  TGI: 8.91 µM
LOX IMVI melanoma
  TGI: 20.1 µM
HCT-116 colon
  TGI: > 100 µM
A549 NSCLC
  TGI: > 100 µM
SK-MEL-28 melanoma
  TGI: > 100 µM
UACC-257 melanoma
  TGI: > 100 µM
PC-3 prostate
  TGI: > 100 µM
SK-MEL-5 melanoma
  TGI: > 100 µM
SNB-75 CNS
  TGI: > 100 µM
SN12C renal
  TGI: > 100 µM
CAKI-1 renal
  TGI: > 63.3 µM
SK-MEL-2 melanoma
  TGI: > 100 µM
NCI-H23 lung
  TGI: > 100 µM
IGROV1 ovarian
  TGI: > 100 µM
786-0 renal
  TGI: > 100 µM
DU-145 prostate
  TGI: > 100 µM
HOP-62 NSCLC
  TGI: > 100 µM
SF-295 CNS
  TGI: > 100 µM
MDA-MB-435
  TGI: > 100 µM
MCF7 breast
  TGI: > 100 µM

## CC(NC(=O)OC(C)(C)C)C(=O)NC(Cc1ccccc1)C(=O)NCC(=O)O (stereo not drawn) (Boc-Ala-Phe-Gly-OH; configuration not given here)
SNB-19 CNS
  TGI: > 100 µM
RPMI-8226 leukemia
  TGI: > 100 µM
OVCAR-8 ovarian
  TGI: > 100 µM
NCI-H226 lung
  TGI: > 100 µM
BT-549 breast
  TGI: > 100 µM
ACHN renal
  TGI: > 100 µM
UO-31 renal
  TGI: > 100 µM
NCI-H460 lung
  TGI: > 100 µM
MOLT-4 leukemia
  TGI: > 100 µM
HOP-92 NSCLC
  TGI: > 100 µM
SR leukemia
  TGI: > 100 µM
HS 578T breast
  TGI: > 100 µM
SK-OV-3 ovarian
  TGI: > 100 µM
MDA-MB-231 breast
  TGI: > 100 µM
A498 renal
  TGI: > 100 µM
OVCAR-3 ovarian
  TGI: > 100 µM
NCI-H522 lung
  TGI: > 100 µM
HT29 colon
  TGI: > 100 µM
RXF 393 renal
  TGI: > 100 µM
OVCAR-5 ovarian
  TGI: > 100 µM
MALME-3M melanoma
  TGI: > 100 µM
U251 CNS
  TGI: > 100 µM
SW-620 colon
  TGI: > 100 µM
CCRF-CEM leukemia
  TGI: > 100 µM
EKVX NSCLC
  TGI: > 100 µM
K-562 leukemia
  TGI: > 100 µM
MDA-N
  TGI: > 100 µM
SF-268 CNS
  TGI: > 100 µM
UACC-62 melanoma
  TGI: > 100 µM
NCI/ADR-RES ovarian
  TGI: > 100 µM
KM12 colon
  TGI: > 100 µM
T-47D breast
  TGI: > 100 µM
TK-10 renal
  TGI: > 100 µM
HCT-15 colon
  TGI: > 100 µM
COLO 205 colon
  TGI: > 100 µM
M14 melanoma
  TGI: > 100 µM
HCC-2998 colon
  TGI: > 100 µM
HL-60(TB) leukemia
  TGI: > 100 µM
LOX IMVI melanoma
  TGI: > 100 µM
HCT-116 colon
  TGI: > 100 µM
A549 NSCLC
  TGI: > 100 µM
SK-MEL-28 melanoma
  TGI: > 100 µM
UACC-257 melanoma
  TGI: > 100 µM
PC-3 prostate
  TGI: > 100 µM
SK-MEL-5 melanoma
  TGI: > 100 µM
SNB-75 CNS
  TGI: > 100 µM
SN12C renal
  TGI: > 100 µM
CAKI-1 renal
  TGI: > 100 µM
SK-MEL-2 melanoma
  TGI: > 100 µM
NCI-H23 lung
  TGI: > 100 µM
IGROV1 ovarian
  TGI: > 100 µM
786-0 renal
  TGI: > 100 µM
DU-145 prostate
  TGI: > 100 µM
HOP-62 NSCLC
  TGI: > 100 µM
SF-539 CNS
  TGI: > 100 µM
SF-295 CNS
  TGI: > 100 µM
MDA-MB-435
  TGI: > 100 µM
MCF7 breast
  TGI: > 100 µM
